# In patent publication US7713971B2, “1,2,4-triazine derivatives, preparation and use thereof in human therapy” (Pierre Fabre Medicament, priority 2005, dated 2010):
# Read-outs that look alike come from different tables or passages of the source.
# How the values were obtained:
# [1] = test system: insulin-resistant male rat (Ico: ZUCKER-fa/fa); test: Normalization of metabolic parameters (cholesterol, plasma triglycerides) in insulin-resistant rat; type: in vivo; settings: oral route, once per day for four days, Zucker fa/fa rat unfed 16-18 hours; for change in vivo at 2.5 mg/kg / change in vivo at 10 mg/kg: 96 h; for change in vivo at 10 mg/kg / Plasma triglycerides: at 10 mg/kg
# Protocol: Normalization of metabolic parameters (cholesterol, plasma triglycerides) in an insulin-resistant male rat (Ico: ZUCKER-fa/fa), unfed for 16-18 hours, after treatment by oral route, once per day for four days, with the compounds to be evaluated or their administration vehicle.
# These metabolic parameters are measured by spectrophotometry at the beginning and the end of each animal's treatment.
# human PPARγ = target: T1, human PPARγ (Homo sapiens, UniProt P37231); test: Reporter gene transactivation, hPPAR-GAL4 gamma; type: cell-based; settings: transfected Cos-7 cells, Gal-4 luciferase reporter, 24 hours treatment
# T1 construct: expressed in transfected cells; host or cells: Cos-7 cells (ATCC, CRL-1651)
# T1 sequence (P37231 238-503 limits assumed): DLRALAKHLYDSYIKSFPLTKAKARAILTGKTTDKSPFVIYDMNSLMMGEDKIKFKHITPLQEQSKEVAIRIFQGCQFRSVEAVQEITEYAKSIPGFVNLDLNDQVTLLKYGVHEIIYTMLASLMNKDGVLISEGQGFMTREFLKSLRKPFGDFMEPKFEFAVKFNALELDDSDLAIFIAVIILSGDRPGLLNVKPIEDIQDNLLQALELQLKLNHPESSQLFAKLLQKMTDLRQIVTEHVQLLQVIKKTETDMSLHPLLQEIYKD
# human PPARδ = target: T2, human PPARδ (Homo sapiens, UniProt Q03181); test: Reporter gene transactivation, hPPAR-GAL4 delta; type: cell-based; settings: transfected Cos-7 cells, Gal-4 luciferase reporter, 24 hours treatment
# T2 construct: expressed in transfected cells; host or cells: Cos-7 cells (ATCC, CRL-1651)
# T2 sequence (Q03181 211-439 limits assumed): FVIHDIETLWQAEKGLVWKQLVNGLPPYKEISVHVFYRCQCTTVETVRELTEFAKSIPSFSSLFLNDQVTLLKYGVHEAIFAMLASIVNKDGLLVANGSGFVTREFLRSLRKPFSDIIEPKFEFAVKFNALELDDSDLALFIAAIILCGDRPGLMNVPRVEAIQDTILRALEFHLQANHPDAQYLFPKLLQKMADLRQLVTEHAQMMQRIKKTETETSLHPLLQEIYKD
# human PPARα = target: T3, human PPARα (Homo sapiens, UniProt Q07869); test: Reporter gene transactivation, hPPAR-GAL4 alpha; type: cell-based; settings: transfected Cos-7 cells, Gal-4 luciferase reporter, 24 hours treatment
# T3 construct: expressed in transfected cells; host or cells: Cos-7 cells (ATCC, CRL-1651)
# T3 sequence (Q07869 239-466 limits assumed): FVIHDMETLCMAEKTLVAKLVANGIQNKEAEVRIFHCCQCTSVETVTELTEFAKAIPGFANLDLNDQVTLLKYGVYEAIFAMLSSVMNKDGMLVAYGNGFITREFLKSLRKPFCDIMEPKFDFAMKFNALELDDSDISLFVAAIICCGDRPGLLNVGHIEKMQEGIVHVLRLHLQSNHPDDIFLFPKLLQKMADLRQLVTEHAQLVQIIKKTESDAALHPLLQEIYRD
smiles,measurement,setting,value
"Cn1nc(NCCCCc2cccc(SC(C)(C)C(=O)O)c2)c(=O)n(CCCC(F)(F)F)c1=O [Example 96, 2-Methyl-2-(3-{4-[2-methyl-3,5-dioxo-4-(4,4,4-trifluoro-butyl)-2,3,4,5-tetrahydro-[1,2,4]triazin-6-ylamino]-butyl}-phenylsulfanyl)-propionic Acid]",change in vivo at 2.5 mg/kg,[1]; read-out: Plasma cholesterol,-28%
same,change in vivo at 2.5 mg/kg,[1]; read-out: Plasma triglycerides,-26%
same,change in vivo at 10 mg/kg,[1]; read-out: Plasma cholesterol,-21%
same,change in vivo at 10 mg/kg,[1]; read-out: Plasma triglycerides,-60%
same,EC50,human PPARγ,~10 µM
same,EC50,human PPARδ,> 10 µM
same,EC50,human PPARα,30 to 100 nM
"CCOC(=O)C(C)(C)Oc1cccc(CCCCNc2nn(CCCC(F)(F)F)c(=O)n(CCCC(F)(F)F)c2=O)c1 [Example 80, Ethyl 2-(3-{4-[3,5-dioxo-2,4-bis-(4,4,4-trifluoro-butyl)-2,3,4,5-tetrahydro-[1,2,4]triazin-6-ylamino]-butyl}-phenoxy)-2-methyl-propionate]",change in vivo at 10 mg/kg,[1]; read-out: Plasma cholesterol,-16%
same,Plasma triglycerides,[1],inactive at 10
same,EC50,human PPARγ,0.3 to 1 µM
same,EC50,human PPARδ,> 10 µM
same,EC50,human PPARα,10 to 30 nM
"CCCCCCCN(CCc1ccc(OC(C)(C)C(=O)OCC)cc1)c1nn(C)c(=O)n(C)c1=O [Example 112, Ethyl 2-(4-{2-[(2,4-dimethyl-3,5-dioxo-2,3,4,5-tetrahydro-[1,2,4]triazin-6-yl)-heptyl-amino]-ethyl}-phenoxy)-2-methyl-propionate]",change in vivo at 10 mg/kg,[1]; read-out: Plasma cholesterol,-43%
same,change in vivo at 10 mg/kg,[1]; read-out: Plasma triglycerides,-31%
same,EC50,human PPARγ,~10 µM
same,EC50,human PPARδ,1 to 3 µM
same,EC50,human PPARα,1000 to 3000 nM
"CCOC(=O)C(C)(C)Oc1cccc(CCCNc2nn(CCCC(F)(F)F)c(=O)n(CCCC(F)(F)F)c2=O)c1 [Example 66, Ethyl 2-(3-{3-[3,5-dioxo-2,4-bis-(4,4,4-trifluoro-butyl)-2,3,4,5-tetrahydro-[1,2,4]triazin-6-ylamino]-propyl}-phenoxy)-2-methyl-propionate]",change in vivo at 10 mg/kg,[1]; read-out: Plasma cholesterol,-9%
same,Plasma triglycerides,[1],inactive at 10
same,EC50,human PPARγ,> 10 µM
same,EC50,human PPARδ,~10 µM
same,EC50,human PPARα,30 to 100 nM
"CCOC(=O)C(C)(C)Oc1ccc(OCCNc2nn(CCCC(F)(F)F)c(=O)n(CCCC(F)(F)F)c2=O)cc1 [Example 41, Ethyl 2-(4-{2-[3,5-dioxo-2,4-bis-(4,4,4-trifluoro-butyl)-2,3,4,5-tetrahydro-[1,2,4]triazin-6-ylamino]-ethoxy}-phenoxy)-2-methyl-propionate]",change in vivo at 10 mg/kg,[1]; read-out: Plasma cholesterol,-28%
same,Plasma triglycerides,[1],inactive at 10
same,EC50,human PPARγ,~10 µM
same,EC50,human PPARδ,1 to 3 µM
same,EC50,human PPARα,~100 nM
